Experimental data reported in patent EP0253314B1, “Peptidase and process for producing the same” (SUNTORY LIMITED, priority 1986, dated 1988).
Non-standard residues stand in square brackets, D forms with d. Residues, ends and D or L forms follow the SMILES beside them. *: point of attachment. Sta = CC(C)C[C@H](N)[C@@H](O)CC(=O)O; Isovaleryl = CC(C)CC(=O)*

Tests used:
[1] = tested on: peptidase of the present invention; assay type: biochemical, Saccharomyces cerevisiae; parameters: key to Inhibition: - indicates that the reaction was not inhibited; conditions: for Inhibition: pH 4
[2] = tested on: enzyme of the present invention; assay: Substrate specificity of enzyme (percentage of cleaved substrate by HPLC); assay type: biochemical, Saccharomyces cerevisiae; conditions: 24 hours at 30°C in 0.05 M acetate buffer (pH 4.0); DEAE-Sephacel fraction eluted with 0.2 M NaCl
α-MF = α-MF produced at a level of several µg/ml; reacted for 24 hours; prior-art culture activity; cited from earlier work

Compound	Response to inhibitor (inhibition of the enzyme, in words) [1]	Inhibition [1]	% Cleavage [2]	α-MF cleaved (α-MF)
O=C(O)CN(CCN(CC(=O)O)CC(=O)O)CC(=O)O [EDTA]	not inhibited	-		
CC(=O)N[C@@H](CC(C)C)C(=O)N[C@@H](CC(C)C)C(=O)N[C@H](C=O)CCCNC(=N)N [Leupeptin, leupeptin]	inhibited neither	-		
O=C(O)c1cc[c]([Hg][Cl])cc1 [PCMB, p-chloro-mercuribenzoic acid]	inhibited neither	-		
O=S(=O)(F)Cc1ccccc1 [PMSF, phenylmethylsulfonyl fluoride]	inhibited neither	-		
CC(C)CC(=O)N[C@H](C(=O)N[C@H](C(=O)N[C@@H](CC(C)C)[C@@H](O)CC(=O)N[C@@H](C)C(=O)N[C@@H](CC(C)C)[C@@H](O)CC(=O)O)C(C)C)C(C)C [Pepstatin, pepstatin] (Isovaleryl-VV[Sta]A[Sta]-OH)	not inhibited	-		
Cc1ccc(S(=O)(=O)N[C@@H](CCCCN)C(=O)CCl)cc1 [TLCK, tosyl - L - lysine chloromethyl ketone]	inhibited neither	-		
O=C(O)CI [monoiodoacetic acid]	inhibited neither	-*		
C[C@@H](O)[C@H](N)C(=O)N[C@@H](CCCCN)C(=O)N1CCC[C@H]1C(=O)N[C@@H](CCCNC(=N)N)C(=O)O [tuftsin, Thr - Lys - Pro - Arg] (H-TKPR-OH)			0%	
Cys - Tyr - Ile - Gln - Asn - Cys - Pro - Leu - Gly - NH2 [oxytocin]			0%	
Ser - Glu - Glu - Pro - Pro - Ile - Ser - Leu - Asp - Leu - Thr - Phe - His - Leu - Leu - Arg - Glu - Val - Leu - Glu - Met - Ala - Arg - Ala - Glu - Gln - Leu - Ala - Gln - Gln - Ala - His - Ser - Asn - Arg - Lys - Leu - Met - Glu - Ile - Ile - NH2 [CRF]			0%	
Ser - Leu - Arg - Arg - Ser - Ser - Cys - Phe - Gly - Gly - Arg - Met - Asp - Arg - Ile - Gly - Ala - Gln - Ser - Gly - Leu - Gly - Cys - Asn - Ser - Phe - Arg - Tyr [α-hamp]			0%	
Trp - Gly - Gly - Phe - Leu - Arg - Arg - Ile - Arg - Pro - Lys - Leu - Lys - Trp - Asp - Asn - Gln [dynorphin]			not less than 90%	
Trp - His - Trp - Leu - Gln - Leu - Lys - Pro - Gly - Gln - Pro - Met - Tyr [α-MF]			not less than 90%	about 50%
Tyr - Gly - Gly - Phe - Met - Thr - Ser - Glu - Lys - Ser - Gln - Thr - Pro - Leu - Val - Thr - Leu [β-endorphin]			0%	
pGlu - Leu - Tyr - Glu - Asn - Lys - Pro - Arg - Arg - Pro - Tyr - Ile - Leu [neurotensin]			0%	
